Experiments:
[1] = target: recombinant human c-Met/HGF receptor (Homo sapiens, UniProt P08581); test: In vitro receptor tyrosine kinase assay (DELFIA), c-Met/HGF receptor
A549 cells = test: Wound healing assay in A549 cells (HGF-stimulated); assay type: cell-based; details: Homo sapiens, last dose that inhibited gap closing by more than 25%, 24 h, read-out: A549 WOUND_HEALING IC50
Protocol: Wound healing assay in A549 cells. A549 cells (ATCC) are seeded in DMEM low glucose medium complemented with 10% FBS into 24-well plates at a density of 7.5×10^4 cells/well and grown to confluence (48 h). Inhibitors were added to the medium at a range of doses (0.00032-10 uM) for 3 h at which point a gap is introduced by scraping cells with a P1000 pipette tip. Cells are then stimulated to migrate by the addition of HGF (in the form of conditioned medium from 293T cells over-expressing the human HGF gene) and the culture is continued for 24 h. […] For the purpose of standardization, a control is carried on every assay plates.

DU145 cells = test: Scatter assay in DU145 cells (HGF-stimulated); assay type: cell-based; details: Homo sapiens, DU-145, last dose that created an inhibitory effect on scattering, 24 h, read-out: DU145 SCATT. INHIB IC50
Protocol: Scatter assays in DU145. The scatter assay is performed as described previously (Miura H, Nishimura K, Tsujimura A, Matsumiya K, Matsumoto K, Nakamura T, et al. Effects of hepatocyte growth factor on E-cadherin-mediated cell-cell adhesion in DU145 prostate cancer cells. Urology 2001; 58(6):1064-9) for DU145 prostate carcinoma cells with the indicated modifications. In brief, DU145 cells (ATCC) are seeded in 24-well plates at a density of 7×10^3 cells/well in MEM medium complemented with 10% FBS and cultured for 48 h, to allow the formation of small compact colonies of cells. Inhibitors are subsequently added at a range of doses (0.00032-10 uM) for 3 h. Cells are then stimulated to migrate by the addition of HGF (in the form of conditioned medium from 293T cells over-expressing the human HGF gene) and the culture is continued for another 24 h. The IC50 values is defined as the last dose that created an inhibitory effect on scattering. For the purpose of standardization a control is carried on every test plates for the DU145 scattering assays.

c-Met = target: T1, c-Met (Homo sapiens, UniProt P08581); test: Inhibition of c-Met phosphorylation in MKN45 cells (direct ELISA); assay type: cell-based; details: 3 h treatment, read-out: CMET ELISA IN MKN45 IC50
T1 construct: endogenous in cells; host or cells: MKN45 gastric carcinoma cells
From the text: The following assay is used to determine inhibition of c-Met phosphorylation.
The c-Met receptor is expressed in numerous cancer cell lines derived from tumors of epithelial origin. In MKN45 gastric carcinoma cells the c-Met gene is amplified, resulting in several-fold overexpression of the receptor and its constitutive activation. For this reason constitutively high levels of ERK1/2 are also detected in these cells, independently of HGF-added stimulation (Smolen G A, Sordella R, Muir B, Mohapatra G, Barmettler A, Archibald H, et al. Amplification of MET may identify a subset of cancers with extreme sensitivity to the selective tyrosine kinase inhibitor PHA-665752. Proc Natl Acad Sci USA 2006). We have developed a sensitive method to follow c-Met phosphorylation in these cells. In previous studies with earlier generation c-Met inhibitors, we established that the IC50s for the inhibition of c-Met phosphorylation were identical using this novel ELISA approach and standard western blot procedure, with antibodies directed against the activating autocatalysis tyrosine residues of c-MET (Tyr Y1230-34-35).
Cell treatments: MKN45 cells are seeded into wells of 96-well plates at a density of 3×10^4 cells/well in RPMI medium supplemented with 10% FBS. HA-TPR-RON expressing 293T (clone 18) cells are seeded into wells of 96-well plates at a density of 3×10^4 cells/well in DMEM medium supplemented with 10% FBS. Cells are grown for 48 h prior to treatments with compounds of interest. Inhibitors are added to the medium in triplicate wells at the indicated doses. After 3 h of treatment, media is aspirated and cells are lysed by one freeze-thaw cycle in 50 μL/well hypotonic lysis buffer (25 mM HEPES pH 7.5, 10 mM NaCl with 1 mM 4-(2-aminoethyl)benzenesulfonyl fluoride hydrochloride, 200 μM sodium orthovanadate, 1 mM sodium fluoride, 10 μg/mL of leupeptin, 10 μg/mL of aprotinin/mL, 1 μg/mL of pepstatin and 50 μg/mL Na-p-tosyl-L-lysine chloromethyl ketone hydrochloride.
Detection of phosphorylated c-Met by direct ELISA: Lysate samples (5 μL) from wells of treatment plates are transferred to 80 μL of binding buffer (25 mM HEPES pH 7.5, 200 mM NaCl) in wells of high binding white polysterene 96-well plates (Corning). After an overnight protein binding incubation at 4° C., lysates are aspirated and wells are blocked for 1 h at 37° C. in TBST supplemented with 5% BSA. Plates are incubated with the primary antibodies anti-phospho-Tyrosine (Millipore, 4G10) diluted 1/15000 in TBST supplemented with 5% BSA for 1 h at room temperature. Plates are washed 3 times on a plate washer (SkanWasher, Molecular Devises), and incubated with the reporter antibody […] (Sigma) diluted 1/15000 in TBST supplemented with 5% BSA, for 1 h at room temperature. Plates are washed 3 times with TBST using on a plate washer and subsequently incubated with chemiluminescent substrate solution (ECL, Roche). Luminescence signal is captured on a Polar Star Optima apparatus (BMG LabTech).
Average values of the triplicate samples are used to prepare IC50 curves using a 4-parameter fit model. These curves are calculated using, for example, GraFit 5.0 software. For assay standardization purpose, an internal control is included on each experimental test plate.

VEGF receptor KDR = target: T2, VEGF receptor KDR (Homo sapiens, UniProt P35968); test: In vitro receptor tyrosine kinase assay (DELFIA), VEGF receptor KDR; assay type: biochemical; details: GST-VEGFR2 806-1356, 0.6 uM ATP; read-out: VEGFR IC50
T2 construct: made in house; host or cells: Sf9 cells (Spodoptera frugiperda), baculovirus
From the text: In the case of VEGF receptor KDR a 1.6-kb cDNA corresponding to the catalytic domain of VEGFR2 or KDR (Genbank accession number AF035121 amino acid 806 to 1356) is cloned into the Pst I site of the pDEST20 Gateway vector (Invitrogen) for the production of a GST-tagged version of that enzyme.
The GST-VEGFR2806-1356 protein is expressed in Sf9 cells (Spodoptera frugiperda) upon infection with recombinant baculovirus construct.
The supernatant is loaded onto a GST-agarose column (Sigma) equilibrated with PBS pH 7.3. Following a four column volume (CV) wash with PBS pH 7.3+1% Triton X-100 and 4 CV wash with buffer B (50 mM Tris pH 8.0, 20% glycerol and 100 mM NaCl), bound proteins are step eluted with 5 CV of buffer B supplemented with 5 mM DTT and 15 mM glutathion. […] Final GST-VEGFR2806-1356 protein preparations concentrations are about 0.7 mg/ml with purity approximating 70%.

T2 sequence (P35968 806-1356): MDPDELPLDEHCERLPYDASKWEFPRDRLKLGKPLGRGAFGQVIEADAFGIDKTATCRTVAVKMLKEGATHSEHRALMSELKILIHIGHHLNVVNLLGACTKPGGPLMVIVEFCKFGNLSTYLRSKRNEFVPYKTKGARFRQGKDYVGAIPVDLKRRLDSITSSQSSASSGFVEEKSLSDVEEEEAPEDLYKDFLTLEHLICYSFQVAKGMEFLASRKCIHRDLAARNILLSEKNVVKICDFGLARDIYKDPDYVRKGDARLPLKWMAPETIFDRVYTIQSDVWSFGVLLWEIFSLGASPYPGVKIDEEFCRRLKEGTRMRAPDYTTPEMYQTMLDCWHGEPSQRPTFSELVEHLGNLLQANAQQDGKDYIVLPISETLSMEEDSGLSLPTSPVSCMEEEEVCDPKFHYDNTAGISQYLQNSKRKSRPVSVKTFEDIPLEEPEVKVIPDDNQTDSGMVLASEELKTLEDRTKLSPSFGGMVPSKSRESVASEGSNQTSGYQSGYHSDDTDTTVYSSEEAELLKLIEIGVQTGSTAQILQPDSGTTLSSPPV
T1 sequence (P08581 25-1390): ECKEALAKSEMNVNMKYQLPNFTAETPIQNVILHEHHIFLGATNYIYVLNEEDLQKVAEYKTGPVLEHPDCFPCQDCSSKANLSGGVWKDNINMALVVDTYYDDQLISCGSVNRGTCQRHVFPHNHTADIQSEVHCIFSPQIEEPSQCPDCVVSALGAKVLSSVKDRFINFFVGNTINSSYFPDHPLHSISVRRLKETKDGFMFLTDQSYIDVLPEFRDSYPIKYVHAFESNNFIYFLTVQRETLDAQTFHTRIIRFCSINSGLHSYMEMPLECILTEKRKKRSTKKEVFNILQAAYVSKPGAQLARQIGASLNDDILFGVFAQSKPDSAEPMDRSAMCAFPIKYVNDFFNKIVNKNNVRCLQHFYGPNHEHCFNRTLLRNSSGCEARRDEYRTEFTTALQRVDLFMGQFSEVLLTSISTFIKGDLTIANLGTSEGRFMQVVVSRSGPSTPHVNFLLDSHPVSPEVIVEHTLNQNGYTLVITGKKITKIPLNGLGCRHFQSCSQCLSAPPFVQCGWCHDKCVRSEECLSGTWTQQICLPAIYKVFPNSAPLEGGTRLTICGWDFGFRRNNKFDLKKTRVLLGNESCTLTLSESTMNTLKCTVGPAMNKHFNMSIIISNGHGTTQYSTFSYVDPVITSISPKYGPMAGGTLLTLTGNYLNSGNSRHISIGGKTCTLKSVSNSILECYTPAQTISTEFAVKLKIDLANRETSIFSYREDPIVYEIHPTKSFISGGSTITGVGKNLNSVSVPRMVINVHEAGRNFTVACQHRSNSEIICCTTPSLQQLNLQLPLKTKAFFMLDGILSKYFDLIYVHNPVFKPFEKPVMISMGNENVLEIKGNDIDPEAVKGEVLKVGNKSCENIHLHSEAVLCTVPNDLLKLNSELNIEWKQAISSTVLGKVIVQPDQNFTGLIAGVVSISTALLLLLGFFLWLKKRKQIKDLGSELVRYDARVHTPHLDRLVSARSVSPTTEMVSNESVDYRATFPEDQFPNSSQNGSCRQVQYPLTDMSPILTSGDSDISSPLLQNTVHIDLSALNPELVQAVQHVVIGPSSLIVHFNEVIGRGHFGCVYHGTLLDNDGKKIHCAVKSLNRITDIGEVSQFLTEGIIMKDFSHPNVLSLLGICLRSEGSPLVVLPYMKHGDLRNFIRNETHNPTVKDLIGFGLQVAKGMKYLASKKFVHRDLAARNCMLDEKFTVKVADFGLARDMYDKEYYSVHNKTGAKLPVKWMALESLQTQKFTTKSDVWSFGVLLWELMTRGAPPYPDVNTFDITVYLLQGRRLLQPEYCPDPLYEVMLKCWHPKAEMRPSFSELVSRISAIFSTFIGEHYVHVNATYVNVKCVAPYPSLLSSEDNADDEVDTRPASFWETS
Sequence of recombinant human c-Met/HGF receptor (P08581 1078-1337): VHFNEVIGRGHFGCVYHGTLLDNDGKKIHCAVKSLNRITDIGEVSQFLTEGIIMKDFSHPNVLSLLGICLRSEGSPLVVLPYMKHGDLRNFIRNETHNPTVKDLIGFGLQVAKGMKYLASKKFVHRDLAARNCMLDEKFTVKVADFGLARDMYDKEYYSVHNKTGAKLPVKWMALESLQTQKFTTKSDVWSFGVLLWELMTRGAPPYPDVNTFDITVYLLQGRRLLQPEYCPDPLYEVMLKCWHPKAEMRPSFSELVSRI

Compound | IC50 [1] [nM] | IC50 (A549 cells) [nM] | IC50 (DU145 cells) [nM] | IC50 (c-Met) [nM] | IC50 (VEGF receptor KDR) [nM]
COC[C@H](C)NCc1cccc(-c2cc3nccc(Oc4ccc(NC(=S)NC(=O)Cc5ccccc5)cc4F)c3s2)c1 | < 250 | 250 to 500 | 250 to 500 | < 250 | < 250
CS(=O)(=O)CCNCc1cccc(-c2cc3nccc(Oc4ccc(NC(=S)NC(=O)Cc5ccc(F)cc5)cc4F)c3s2)c1 | < 250 | > 1000 | > 1000 | < 250 | < 250
COC[C@H](C)NCc1ccc(-c2cc3nccc(Oc4ccc(NC(=S)NC(=O)Cc5ccc(F)cc5)cc4F)c3s2)cc1 | < 250 | 250 to 500 | 250 to 500 | < 250 | < 250
CS(=O)(=O)CCNCc1ccc(-c2cc3nccc(Oc4ccc(NC(=S)NC(=O)Cc5ccc(F)cc5)cc4F)c3s2)cc1 | < 250 | 250 to 500 | 250 to 500 | < 250 | < 250
O=C(Nc1ccccc1)C1(C(=O)Nc2ccc(Oc3ccnc4cc(-c5ccc(CNCC(F)(F)F)cc5)sc34)c(F)c2)CC1 | < 250 | < 250 | < 250 | < 250 | < 250
COCCNCc1cnc(-c2cc3nccc(Oc4ccc(NC(=O)Nc5cc(C)on5)cc4F)c3s2)n1C |  |  |  |  | < 250
COCCNCc1cccc(-c2cc3nccc(Oc4ccc(NC(=O)Nc5cc(C(F)(F)F)ccc5F)cc4F)c3s2)n1 | < 250 |  |  |  | < 250
COCCN(Cc1cnc(-c2cc3nccc(Oc4ccc(NC(=O)NC5CC5)cc4F)c3s2)n1C)C(=O)OCc1ccccc1 | > 1000 |  |  |  | 
COCCNCc1cccc(-c2cc3nccc(Oc4ccc(NC(=O)NC5CC5)cc4F)c3s2)n1 | 250 to 500 |  |  |  | 250 to 500
COCCNCc1cnc(-c2cc3nccc(Oc4ccc(NC(=O)NC5CC5)cc4F)c3s2)n1C | 250 to 500 |  |  |  | < 250
COCCNCc1ccc(-c2cc3nccc(Oc4ccc(NC(=O)C5(C(=O)Nc6ccc(F)cc6)CC5)cc4F)c3s2)nc1 [drawing 354] |  | < 250 | < 250 |  | < 250

More lines, now with the values ahead:

IC50 [1] [nM] | IC50 (A549 cells) [nM] | IC50 (DU145 cells) [nM] | IC50 (c-Met) [nM] | IC50 (VEGF receptor KDR) [nM] | Compound
< 250 | > 1000 | 250 to 500 | 250 to 500 | 250 to 500 | COCCNCc1cccc(-c2cc3nccc(Oc4ccc(NC(=O)NC(=O)Cc5ccc(F)cc5)cc4F)c3s2)c1
< 250 | 250 to 500 | 250 to 500 | < 250 | < 250 | COCCNCc1cccc(-c2cc3nccc(Oc4ccc(NC(=S)NC(=O)Cc5ccccc5OC)cc4F)c3s2)c1
< 250 | > 1000 | > 1000 | < 250 | < 250 | CS(=O)(=O)CCNCc1cccc(-c2cc3nccc(Oc4ccc(NC(=S)NC(=O)Cc5ccccc5)cc4F)c3s2)c1
< 250 | 250 to 500 | 250 to 500 | 250 to 500 | < 250 | COC[C@H](C)NCc1ccc(-c2cc3nccc(Oc4ccc(NC(=S)NC(=O)Cc5ccccc5)cc4F)c3s2)cc1
< 250 | 250 to 500 | 250 to 500 | < 250 | < 250 | COCCNCc1ccc(-c2cc3nccc(Oc4ccc(NC(=S)NC(=O)Cc5ccccc5F)cc4F)c3s2)cc1
< 250 | 250 to 500 | 250 to 500 | < 250 | < 250 | CS(=O)(=O)CCNCc1ccc(-c2cc3nccc(Oc4ccc(NC(=S)NC(=O)Cc5ccccc5)cc4F)c3s2)cc1
< 250 | 250 to 500 | 250 to 500 | 500 to 1000 | < 250 | COCCNCc1ccc(-c2cc3nccc(Oc4ccc(NC(=O)C5(C(=O)Nc6ccccc6OC)CC5)cc4F)c3s2)cc1
< 250 | 250 to 500 | > 1000 | < 250 | < 250 | COCCNCc1ccc(-c2cc3nccc(Oc4ccc(NC(=S)NC(=O)Cc5ccccc5)cc4F)c3s2)o1
< 250 | 250 to 500 | 250 to 500 | 250 to 500 | < 250 | COCCNCc1ccc(-c2cc3nccc(Oc4ccc(NC(=O)CC(=O)Nc5ccccc5)cc4F)c3s2)cc1
< 250 | > 1000 | 250 to 500 | < 250 | < 250 | COCCNCc1ccc(-c2cc3nccc(Oc4ccc(NC(=S)NC(=O)Cc5ccccc5OC)cc4F)c3s2)cc1
< 250 | < 250 | < 250 | < 250 | < 250 | COCCNCc1ccc(-c2cc3nccc(Oc4ccc(NC(=S)NC(=O)Cc5ccccc5)cc4F)c3s2)nc1
< 250 | 250 to 500 | 250 to 500 | 250 to 500 | < 250 | COCCNCCc1ccc(-c2cc3nccc(Oc4ccc(NC(=O)CC(=O)Nc5ccccc5)cc4F)c3s2)cc1
< 250 | < 250 | < 250 | < 250 | < 250 | COCCNCc1cnc(-c2cc3nccc(Oc4ccc(NC(=O)C5(C(=O)Nc6ccccc6)CC5)cc4F)c3s2)n1C
< 250 | < 250 | < 250 | < 250 | < 250 | COCCNCc1ccc(-c2cc3nccc(Oc4ccc(NC(=O)CC(=O)Nc5ccccc5)cc4F)c3s2)nc1
< 250 | < 250 | 250 to 500 | < 250 | < 250 | COCCNCc1ccc(-c2cc3nccc(Oc4ccc(NC(=O)CC(=O)Nc5ccc(F)cc5)cc4F)c3s2)nc1

From patent US8389541B2, “Inhibitors of protein tyrosine kinase activity” (MethylGene Inc., priority 2007, dated 2013)
